From ChEMBL document CHEMBL3727363, “Imidazothiadiazole derivatives as protease activated receptor 4 (PAR4) inhibitors for treating platelet aggregation” (2013) come the findings set out here.

For assay [1], the target named is T1, Proteinase-activated receptor 4 (Homo sapiens, UniProt Q96RI0).
T1 sequence (Q96RI0 whole entry): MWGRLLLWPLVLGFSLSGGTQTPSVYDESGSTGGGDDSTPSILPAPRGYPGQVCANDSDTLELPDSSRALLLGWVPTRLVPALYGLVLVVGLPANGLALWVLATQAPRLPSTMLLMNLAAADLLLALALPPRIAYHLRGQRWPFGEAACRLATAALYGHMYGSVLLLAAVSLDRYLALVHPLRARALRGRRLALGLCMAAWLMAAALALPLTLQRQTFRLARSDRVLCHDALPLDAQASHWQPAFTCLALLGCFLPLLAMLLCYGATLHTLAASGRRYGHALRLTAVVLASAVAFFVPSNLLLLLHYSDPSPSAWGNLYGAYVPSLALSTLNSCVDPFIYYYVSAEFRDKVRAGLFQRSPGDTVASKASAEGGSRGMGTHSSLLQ
The assay is described as follows: Antagonist activity against human PAR4 expressed in HEK293 cells assessed as reduction in H-Ala-Phe(4-F)-Pro-Gly-Trp-Leu-Val-Lys-Asn-Gly-NH2-induced intracellular calcium mobilization incubated for 30 mins before agonist addition by FLIPR assay. Format: functional, cell-based. Background: A change in cytosolic calcium serves as a functional read-out for many receptors and channels.

The test system of assay [2] is Cynomolgus monkey. In words: Antithrombotic activity in cynomolgus monkey model of electrolytic injury-induced carotid artery thrombosis assessed as reduction in thrombosis-induced occlusion by measuring thrombus weight at 0.4 mg/kg, po dosed 1 to 2 hrs before test. Format: functional, Macaca fascicularis. Also noted: scale not given: the % may be the effect or the level left.

Assay [3] has as its system Cynomolgus monkey. In words: Antithrombotic activity in cynomolgus monkey model of electrolytic injury-induced carotid artery thrombosis assessed as reduction in thrombosis-induced occlusion by measuring thrombus weight at 2 mg/kg, po dosed 1 to 2 hrs before test. The format is functional, Macaca fascicularis. The arrangement: scale not given: the % may be the effect or the level left.

Assay [4] relates to Cynomolgus monkey. The assay is described as follows: Antithrombotic activity in cynomolgus monkey model of electrolytic injury-induced carotid artery thrombosis assessed as reduction in thrombosis-induced occlusion by measuring thrombus weight at 10 mg/kg, po dosed 1 to 2 hrs before test. The format is functional, Macaca fascicularis. Also noted: scale not given: the % may be the effect or the level left.

Assay [5] deals with T2, Proteinase-activated receptor 4 (Homo sapiens) (UniProt Q96RI0).
T2 sequence (whole entry): T1 sequence (Q96RI0 whole entry)
In words: Antagonist activity against PAR4 in washed human platelets assessed as inhibition of […] alpha-thrombin-induced platelet aggregation pre-incubated for 5 mins before alpha-thrombin addition by optical aggregometry. Format: functional.

Assay [6] deals with T2, Proteinase-activated receptor 4 (Homo sapiens). The assay is described as follows: Antagonist activity against PAR4 in washed human platelets assessed as inhibition of 5 nM alpha-thrombin-induced platelet aggregation pre-incubated for 5 mins before alpha-thrombin addition by optical aggregometry. Format: functional.

Structures are written as SMILES.

One may read the IC50 as the concentration at which inhibition is half-maximal.

Turning to `CSc1nn2cc(-c3cc4c(C(F)(F)F)cc(C)nc4o3)nc2s1`, the IC50 in assay [1] worked out at 8.15 nM.

Turning to `COc1cccc2oc(-c3cn4nc(SC)sc4n3)cc12`, in assay [1], the IC50 worked out at 11.1 nM.

As to `COc1cc(OCc2cccc(OCc3ccccc3)c2)c2cc(-c3cn4nc(OC)sc4n3)oc2c1`, the Activity is given as -9% in assay [2], -38% in assay [3] and -38% in assay [4].

`COc1nn2cc(-c3cc4ccc([N+](=O)[O-])cc4o3)nc2s1`: the IC50 in assay [1] worked out at 38.2 nM.

`COc1cc(OCc2cccc(OCc3ccc(OC)c(C)c3C)c2)c2cc(-c3cn4nc(OC)sc4n3)oc2c1`: in assay [1], the IC50 is 5.49 nM.

Regarding `COc1cc(OCc2ccccc2)c2cc(-c3cn4nc(OC)sc4n3)oc2c1`, the inhibition result in assay [5] and in assay [6] was “Dose-dependent effect” each time.
